Test system: CN0375-F725-PDC KRAS spheroid viability
Assay: Anticancer human tumor CN0375-F725-PDC patient-derived colon carcinoma cell line growth inhibition [KRAS2]
Conditions: spheroids with HUVEC and MSC; for IC50: curve of first compound; for viability, T/C: stronger effect = lower value
Method in brief: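 KRAS-mutant tumor cells were grown as spheroids with HUVEC endothelial cells and human MSCs as stroma. Targeted agents were tested alone and with KRAS pathway inhibitors. Doses started at or near clinical Cmax, or 10 microM, descending half-log.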

[1] = second compound 0.1 µM, first compound 0.0316 µM
[2] = second compound 0.1 µM, first compound 0.1 µM
[3] = second compound 0.1 µM, first compound 0.316 µM
[4] = second compound 0.1 µM, first compound 1 µM
[5] = second compound 0.1 µM, first compound 3.16 µM
[6] = second compound 0.1 µM, first compound 10 µM
[7] = second compound 0.316 µM, first compound 0.0316 µM
[8] = second compound 0.316 µM, first compound 0.1 µM
[9] = second compound 0.316 µM, first compound 0.316 µM
[10] = second compound 0.316 µM, first compound 1 µM
[11] = second compound 0.316 µM, first compound 3.16 µM
[12] = second compound 0.316 µM, first compound 10 µM
[13] = second compound 1 µM, first compound 0.0316 µM
[14] = second compound 1 µM, first compound 0.1 µM
[15] = second compound 1 µM, first compound 0.316 µM
[16] = second compound 1 µM, first compound 1 µM
[17] = second compound 1 µM, first compound 3.16 µM
[18] = second compound 1 µM, first compound 10 µM
[19] = second compound 3.16 µM, first compound 0.0316 µM
[20] = second compound 3.16 µM, first compound 0.1 µM
[21] = second compound 3.16 µM, first compound 0.316 µM
[22] = second compound 3.16 µM, first compound 1 µM
[23] = second compound 3.16 µM, first compound 3.16 µM
[24] = second compound 3.16 µM, first compound 10 µM
[25] = second compound 10 µM, first compound 0.0316 µM
[26] = second compound 10 µM, first compound 0.1 µM
[27] = second compound 10 µM, first compound 0.316 µM
[28] = second compound 10 µM, first compound 1 µM
[29] = second compound 10 µM, first compound 3.16 µM
[30] = second compound 10 µM, first compound 10 µM
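Note: spheroids exposed to agents for 7 days.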

SMILES | IC50 (second compound 0.1 µM) | IC50 (second compound 0.316 µM) | IC50 (second compound 1 µM) | IC50 (second compound 3.16 µM) | IC50 (second compound 10 µM) | viability, T/C [1] | viability, T/C [2] | viability, T/C [3] | viability, T/C [4] | viability, T/C [5] | viability, T/C [7] | viability, T/C [8] | viability, T/C [9] | viability, T/C [10] | viability, T/C [11] | viability, T/C [13] | viability, T/C [14] | viability, T/C [15] | viability, T/C [16] | viability, T/C [17] | other results
CC1(C)CCC(CN2CCN(c3ccc(C(=O)NS(=O)(=O)c4ccc(NCC5CCOCC5)c([N+](=O)[O-])c4)c(Oc4cnc5[nH]ccc5c4)c3)CC2)=C(c2ccc(Cl)cc2)C1 + CC1OCC2(CCN(c3cnc(Sc4ccnc(N)c4Cl)c(N)n3)CC2)C1N | 3.49 µM | 2.76 µM | 2.6 µM | 2.13 µM | 1.61 µM | 103% | 100% | 104% | 103% | 51.6% | 95.4% | 100% | 94.6% | 95.8% | 43.8% | 90.7% | 91.5% | 89.9% | 86.3% | 42.5% | viability, T/C [6]: 31.6%; viability, T/C [12]: 25.1%; viability, T/C [18]: 22.2%; viability, T/C [19]: 84.4%; viability, T/C [20]: 87.1%; viability, T/C [21]: 87.4%; viability, T/C [22]: 82.8%; viability, T/C [23]: 32.9%; viability, T/C [24]: 13.9%; viability, T/C [25]: 67.7%; viability, T/C [26]: 73.2%; viability, T/C [27]: 77.2%; viability, T/C [28]: 69.6%; viability, T/C [29]: 22%; viability, T/C [30]: 8.8%
COC(=O)c1ccc2c(C(=Nc3ccc(N(C)C(=O)CN4CCN(C)CC4)cc3)c3ccccc3)c(O)[nH]c2c1 + COc1cc2nc(C)nc(NC(C)c3cc(N)cc(C(F)(F)F)c3)c2cc1OC1CCOC1 | 2.14 µM | 3.58 µM | 2.4 µM | 1.46 µM | < 0.0316 µM | 97% | 102% | 91.3% | 87.1% | 31.2% | 97.9% | 99.5% | 86.3% | 85.3% | 55.4% | 91.8% | 91.5% | 85% | 77% | 41.6% | viability, T/C [6]: 0.21%; viability, T/C [12]: 0.5%; viability, T/C [18]: 0.19%; viability, T/C [19]: 85.8%; viability, T/C [20]: 78.8%; viability, T/C [21]: 80.6%; viability, T/C [22]: 66.8%; viability, T/C [23]: 16.1%; viability, T/C [24]: 0.48%; viability, T/C [25]: 18.3%; viability, T/C [26]: 18.9%; viability, T/C [27]: 13.1%; viability, T/C [28]: 9.52%; viability, T/C [29]: 1.91%; viability, T/C [30]: 0.15%
CC(=O)OC12COC1CC(O)C1(C)C(=O)C(O)C3=C(C)C(OC(=O)C(O)C(NC(=O)OC(C)(C)C)c4ccccc4)CC(O)(C(OC(=O)c4ccccc4)C21)C3(C)C (stereo not given) + C=CC(=O)N1CCN(c2nc(=O)n(-c3c(C)ccnc3C(C)C)c3nc(-c4c(O)cccc4F)c(F)cc23)C(C)C1 | > 3.16 µM | > 3.16 µM | > 3.16 µM | > 3.16 µM | > 3.16 µM | 97.4% | 88.5% | 86.6% | 86.5% | 76.8% | 97.8% | 94.4% | 93.1% | 85.7% | 81.7% | 98.2% | 91.8% | 87.1% | 88% | 80% | viability, T/C (second compound 0.1 µM, first compound 0.01 µM): 100%; viability, T/C (second compound 0.316 µM, first compound 0.01 µM): 99.8%; viability, T/C (second compound 1 µM, first compound 0.01 µM): 96.6%; viability, T/C (second compound 3.16 µM, first compound 0.01 µM): 97.8%; viability, T/C [19]: 93.8%; viability, T/C [20]: 90.5%; viability, T/C [21]: 88.2%; viability, T/C [22]: 86.1%; viability, T/C [23]: 89.5%; viability, T/C (second compound 10 µM, first compound 0.01 µM): 93.8%; viability, T/C [25]: 92.5%; viability, T/C [26]: 88.1%; viability, T/C [27]: 84.9%; viability, T/C [28]: 74.8%; viability, T/C [29]: 79.9%

Source: PubChem BioAssay AID1963860 (Molecular Pharmacology Branch, DTP, NCI, 2024)
